Experimental data reported in patent US9969698B2, “Quinoxalinyl-piperazinamide methods of use” (REXAHN PHARMACEUTICALS, INC., priority 2015, dated 2018).

Legend:
[1] = tested on: human breast tumor xenografts (MDA-MB-231); test: Breast cancer xenograft model; type: in vivo, mice; details: for TGI % (first value of the cell) / TGI % (second value of the cell): oral
Source text: The efficacy of RX-5902 in human cancer xenograft mouse models is examined. Female nude mice (nu/nu, Harlan or CRL: NU(NCr)-Foxn1^nu, Charles River), 9-10 weeks old, with a body weight (BW) range of 15-30 g on day 1 of the study, are fed ad libitum water (reverse osmosis, 1 ppm C1), and NIH 31 Modified and Irradiated Lab Diet® consisting of 18.0% crude protein, 5.0% crude fat, and 5.0% crude fiber. The mice are housed on irradiated Enrich-o'Cobs™ Laboratory Animal Bedding in static microisolators on a 12-hour light cycle at 20-22° C. (68-72° F.) and 40-60% humidity. The study complies with the recommendations of the Guide for, Care and Use of Laboratory Animals with respect to restraint, husbandry, surgical procedures, feed and fluid regulation, and veterinary care.
Various human tumor cell lines (e.g., HCT116, HT29, H460, H69, Caki-1, CaSki, MiaPaca2, BxPC3 and Colo 205 cells [ATCC, Manassas, Va., USA]) are cultured according to ATCC's instruction. The tumor cells are cultured in tissue culture flasks in a humidified incubator at 37° C., in an atmosphere of 5% CO2 and 95% air.
The cells are harvested during exponential growth and re-suspended with phosphate buffered saline. Each test animal receives a subcutaneous (s.c.) injection of 5×10^6 tumor cells into the right flank and tumor growth is monitored as the average tumor size approaches the target range of 80-300 mm^3. When tumors reach the target size mice are randomized into several groups (n=10-20) and treatment with various regimens of RX-5902 or a positive (e.g., gemcitabine) or negative control (e.g.; vehicle, saline) is initiated. Tumors and body weights are measured regularly until the study is terminated.
Tumors are measured in two dimensions using calipers, and volume is calculated using the formula:
[formula] where w=width and 1=length, in mm, of the tumor. Tumor weight may be estimated with the assumption that 1 mg is equivalent to 1 mm^3 of tumor volume.
Treatment begins on Day 1 in eight groups of mice (n=10-20/group) with established subcutaneous tumors of a particular cell line. Each group is treated according to the study design. All doses are adjusted per body weight. Animals in each group are divided for efficacy and sampling purposes. There are also groups designated to vehicle control and no treatment for sampling purposes.
Treatment efficacy is determined using data from Day 15. The MTV (n), the median tumor volume for the number of animals, n, on Day 15, is determined for each group. Percent tumor growth inhibition (% TGI) is defined as the difference between the MTV of the designated control group (vehicle administration) and the MTV of the drug-treated group, expressed as a percentage of the MTV of the control group: % TGI=[1−(MTVdrug treated/MTVcontrol)]×100 The data set for TGI analysis includes all animals in a group, except those that die due to treatment-related (TR) or non-treatment-related (NTR) causes. An agent that produces at least 60% TGI in this assay is considered to be potentially therapeutically active.
Animals are monitored individually for tumor growth until Day 71. The study protocol specifies a tumor growth delay assay based on the median time to endpoint (TTE) in a treated group versus the control group. Each animal is euthanized for tumor progression (TP) when its tumor reaches the 2000 mm^3 volume endpoint. The time to endpoint (TTE) for each mouse is calculated with the following equation:
[formula] where b is the intercept and m is the slope of the line obtained by linear regression of a log-transformed tumor growth data set. The data set is comprised of the first observation that exceeds the study endpoint volume and the three consecutive observations that immediately precede the attainment of the endpoint volume. […] In instances in which the log-transformed calculated TTE precedes the day prior to reaching endpoint or exceeds the day of reaching tumor volume endpoint, a linear interpolation is performed to approximate TTE. […]

MC38 murine colon cancer = test: Syngeneic MC38 murine colon cancer model; type: in vivo
Procedure: Following the methods described below, the effect of RX-5902 on tumor growth in a syngeneic model using female C57BL/6 mice with MC38 murine colon cancer was examined. Tumor growth was measured in a treatment group compared to a control (vehicle treated) group (see Table 5 below for dosing schema and treatment regimen).
The present study consisted of five groups (n=10 per group) of female C57BL/6 mice bearing subcutaneous MC38 tumors (mean tumor volume range: 66-68 mm3) on Day (D1) of the study, when dosing began. Vehicle was administered orally (p.o.). RX-5902 was administered p.o. at 84.34 mg/kg (70 mg/kg active dose). Anti-PD-1 (RMP1-14) was administered at 100 μg/animal, intraperitoneally (i.p.). Group 1 mice served as controls and received PBS (vehicle) five days on, two days off for three cycles ((5/2)×3). Group 2 received RX-5902 (5/2)×3. Group 3 received anti-PD-1 twice weekly for two weeks (biwk×2). Group 4 received RX-5902 (5/2)×3 and anti-PD-1 biwk×2. The study endpoint was a tumor volume of 1500 mm^3 or 45 days, whichever came first. Tumor measurements were taken twice weekly until Day 45 with individual animals exiting the study upon reaching the tumor volume endpoint.
Partial treatment outcome was based on percent tumor growth inhibition (% TGI), defined as the percent difference between Day 28, chosen for the TGI analysis, median tumor volumes (MTVs) of treated and control mice. The results were analyzed and were deemed statistically significant at P≤0.05. A treatment that produced at least 60% TGI was considered to have potential therapeutic activity. Additionally, efficacy was determined from tumor growth delay (TGD), a measure of the increase in the median time to endpoint (TTE) in a treatment, compared to the control group. Response was additionally evaluated based on the number of study survivors, partial regression (PR) and complete regression (CR) responses, and logrank significance of differences in survival. Tolerability of the various treatments was assessed by body weight (BW) measurements and frequent observation for clinical symptoms and treatment-related (TR) side effects.

COc1cc(OC)cc(N2CCN(C(=O)Nc3nc4cc(F)ccc4nc3OC)CC2)c1 [RX-5902, 4-(3,5-dimethoxyphenyl)-N-(7-fluoro-3-methoxyquinoxalin-2-yl)piperazine-1-carboxamide]
TGI % (first value of the cell) ([1]; 160 mg/kg QWK): 44%
TGI % (second value of the cell) ([1]; 160 mg/kg QWK): 39%
TGI % (first value of the cell) ([1]; 320 mg/kg QWK): 65%
TGI % (second value of the cell) ([1]; 320 mg/kg QWK): 82%
TGI % (first value of the cell) ([1]; 600 mg/kg QWK): 83%
TGI % (second value of the cell) ([1]; 600 mg/kg QWK): 165%
survival in treated mice ([1]; oral, 160, 320 and 600 mg/kg weekly): extending the survival
TGD (MC38 murine colon cancer; 45-day study, maximum possible 52%, RX-5902 84.34 mg/kg po (5/2)x3, anti-PD-1 100 μg/animal ip biwk x2): 51%
median TTE (MC38 murine colon cancer; 45-day study, RX-5902 84.34 mg/kg po (5/2)x3, anti-PD-1 100 μg/animal ip biwk x2): 44.8 days
% TGI (MC38 murine colon cancer; Day 28, RX-5902 84.34 mg/kg po (5/2)x3, anti-PD-1 100 μg/animal ip biwk x2): 90%
MTV on D45 (MC38 murine colon cancer; median tumor volume of survivors): 14 mm^3
partial regressions (PR) (MC38 murine colon cancer; n=10 per group): three
survivors on D45 (MC38 murine colon cancer; n=10 per group): Five
